# ChEMBL document CHEMBL1124628, “Topically active carbonic anhydrase inhibitors. 1. O-acyl derivatives of 6-hydroxybenzothiazole-2-sulfonamide” (J Med Chem, 1989)
# Assays:
# [1] = species: Oryctolagus cuniculus; experiment: Corneal penetration rate constant (k) for excised intact cornea of albino rabbit; assay type: functional
# [2] = target: T1, Carbonic anhydrase 2 (Homo sapiens, UniProt P00918)
# Description: In vitro inhibition of human Carbonic Anhydrase II
# [3] = Cleavage by corneal esterase at 37 degree C and at pH 7.4; assay type: ADME, tissue-based, Cornea
# [4] = species: Oryctolagus cuniculus; experiment: Corneal penetration rate constant (k) for excised denuded cornea of albino rabbit; assay type: functional
# [5] = species: Oryctolagus cuniculus; experiment: % change in intraocular pressure in Albino rabbit when 10% suspension bilaterally instilled in 3 divided doses of 20, 15 and 15 microL at 5 minute intervals determined by recovery rate assay; assay type: functional
# [6] = test system: Oryctolagus cuniculus; experiment: Maximum decrease in intraocular pressure in Albino rabbit during 5 hours observation period after topical instillation of 5% suspension; assay type: functional, Eye
# [7] = species: Oryctolagus cuniculus; experiment: Change in intraocular pressure in Albino rabbit when 10% of compound suspension bilaterally instilled in 3 doses of 20, 15 and 15 microL at 5 minute intervals determined by recovery rate assay; assay type: functional, Eye
# [8] = target: T1, Carbonic anhydrase 2; experiment: In vitro inhibitory activity against human Carbonic anhydrase II; conditions: read-out: I50
# [9] = species: Oryctolagus cuniculus; experiment: Change in intraocular pressure in Albino rabbit when 5% of compound suspension bilaterally instilled in 3 doses of 20, 15 and 15 microL at 5 minute intervals determined by recovery rate assay; assay type: functional, Eye
# [10] = In vitro susceptibility to nucleophilic attack by reduced glutathione at 37 degree C and at pH 7.4; assay type: ADME
# [11] = species: Oryctolagus cuniculus; experiment: Change in intraocular pressure in Albino rabbit when 2% suspension of compound bilaterally instilled in a single dose of 50 microL determined by recovery rate assay; assay type: functional, Eye
# [12] = test system: Oryctolagus cuniculus; experiment: Maximum decrease in intraocular pressure in Albino rabbit during 5 hours observation period after topical instillation of 1% suspension in alpha-Chymotrypsin assay; assay type: functional, Eye
# [13] = test system: Oryctolagus cuniculus; experiment: Maximum decrease in intraocular pressure in Albino rabbit during 5 hours observation period after topical instillation of 0.5% suspension in alpha-Chymotrypsin assay; assay type: functional, Eye
# [14] = species: Oryctolagus cuniculus; experiment: Change in intraocular pressure in Albino rabbit when 1% suspension of compound bilaterally instilled in a single dose of 50 microL determined by recovery rate assay; assay type: functional, Eye
# [15] = test system: Oryctolagus cuniculus; experiment: Maximum decrease in intraocular pressure in Albino rabbit during 5 hours observation period after topical instillation of 5% suspension in alpha-Chymotrypsin assay; assay type: functional, Eye
# [16] = test system: Oryctolagus cuniculus; experiment: Maximum decrease in intraocular pressure in Albino rabbit during 5 hours observation period after topical instillation of 0.5% suspension; assay type: functional, Eye
# [17] = test system: Oryctolagus cuniculus; experiment: Maximum decrease in intraocular pressure in Albino rabbit during 5 hours observation period after topical instillation of 1% suspension; assay type: functional, Eye
# [18] = species: Oryctolagus cuniculus; experiment: Change in intraocular pressure in Albino rabbit when 2% of compound suspension instilled in a single dose of 50 microL determined by recovery rate assay
smiles,measurement,setting,value
CCOC(C)(C)C(=O)Oc1ccc2nc(S(N)(=O)=O)sc2c1,K,[1],0.0373 h⁻¹
same,IC50,[2],1.2 nM
same,half-life,[3],64 min
same,K,[4],0.0162 h⁻¹
CCN(CC)CC1CCC(C(=O)Oc2ccc3nc(S(N)(=O)=O)sc3c2)CC1 (configuration not stated),IC50,[2],2.8 nM
CCOC(=O)Oc1ccc2nc(S(N)(=O)=O)sc2c1,Change,[5],-29%
same,K,[1],0.0402 h⁻¹
same,IC50,[2],6.8 nM
same,half-life,[3],19 min
same,K,[4],0.0145 h⁻¹
same,Pressure,[6],-5.5 mmHg
CCCC(=O)Oc1ccc2sc(S(N)(=O)=O)nc2c1,IC50,[2],4 nM
same,Change,[7],-54%
CC(C)(C)C(=O)Oc1ccc2nc(S(N)(=O)=O)sc2c1N,IC50,[8],25 nM
NS(=O)(=O)c1nc2ccc(OC(=O)c3ccccc3)cc2s1,K,[1],0.035 h⁻¹
same,IC50,[8],8 nM
same,Change,[9],11%
same,half-life,[3],30 min
same,K,[4],0.0152 h⁻¹
same,Change,[7],-25%
same,Reaction,[10],50%
NS(=O)(=O)c1nc2ccc(OC(=O)Cc3ccccc3)cc2s1,Change,[11],13%
same,IC50,[8],30 nM
same,Change,[9],4%
same,Pressure,[12],-6.8 mmHg
same,Change,[7],-48%
same,Pressure,[13],-2.5 mmHg
CN(C)C(=O)Oc1ccc2nc(S(N)(=O)=O)sc2c1,IC50,[2],1.6 nM
same,Change,[9],2%
same,Change,[7],-32%
NS(=O)(=O)c1nc2ccc(O)cc2s1,Reaction,[10],27%
CC(C)(C)C(=O)Oc1ccc2nc(S(N)(=O)=O)sc2c1,Change,[14],-16%
same,Change,[11],-30%
same,Change,[9],-41%
same,half-life,[3],38 min
same,Pressure,[12],-8.2 mmHg
same,Change,[7],-47%
same,Pressure,[13],-6.5 mmHg
same,Pressure,[15],-9.2 mmHg
same,Reaction,[10],50%
CCCC(=O)Oc1ccc2nc(S(N)(=O)=O)sc2c1,Change,[14],-25%
same,Change,[11],-30%
same,K,[1],0.054 h⁻¹
same,IC50,[2],3.2 nM
same,Change,[9],-46%
same,half-life,[3],6 min
same,K,[4],0.0202 h⁻¹
same,Pressure,[12],-6.8 mmHg
same,Change,[7],-50%
same,Pressure,[13],-5.5 mmHg
Cn1cccc1C(=O)Oc1ccc2nc(S(N)(=O)=O)sc2c1,IC50,[2],2.9 nM
same,Change,[7],-12%
COCC(=O)Oc1ccc2nc(S(N)(=O)=O)sc2c1,IC50,[2],3.5 nM
CN(C)OS(=O)(=O)c1ccc2nc(S(N)(=O)=O)sc2c1,IC50,[2],1.2 nM
CC(C)C(=O)Oc1ccc2nc(S(N)(=O)=O)sc2c1,Change,[14],-38%
same,Change,[11],-48%
same,K,[1],0.045 h⁻¹
same,IC50,[2],6.8 nM
same,Change,[9],-33%
same,half-life,[3],9 min
same,K,[4],0.0162 h⁻¹
same,Pressure,[12],-6.8 mmHg
same,Change,[7],-30%
same,Pressure,[13],-9.3 mmHg
same,Pressure,[15],-6.2 mmHg
same,Reaction,[10],50%
CCCCCCCCCCCC(=O)Oc1ccc2nc(S(N)(=O)=O)sc2c1,IC50,[8],3.1 nM
same,Change,[7],-25%
CC(C)COC(=O)Oc1ccc2nc(S(N)(=O)=O)sc2c1,Pressure,[16],-5.7 mmHg
same,Pressure,[17],-6.7 mmHg
same,Change,[18],-22%
same,K,[1],0.0812 h⁻¹
same,IC50,[2],2.2 nM
same,Change,[9],-54%
same,half-life,[3],7 min
same,K,[4],0.0212 h⁻¹
same,Change,[7],-46%
same,Reaction,[10],50%
NS(=O)(=O)c1nc2ccc(OC(=O)/C=C/c3ccccc3)cc2s1,IC50,[8],15 nM
NS(=O)(=O)c1nc2ccc(OC(=O)C3CCCCC3)cc2s1,K,[1],0.0712 h⁻¹
same,IC50,[2],6 nM
same,half-life,[3],2 min
same,K,[4],0.0175 h⁻¹
same,Pressure,[12],-9.8 mmHg
same,Change,[7],-34%
same,Pressure,[13],-4.6 mmHg
same,Reaction,[10],50%
COc1cccc(OC)c1C(=O)Oc1ccc2nc(S(N)(=O)=O)sc2c1,IC50,[2],4 nM
CC(C)(C)C(=O)Nc1c(OC(=O)C(C)(C)C)ccc2nc(S(N)(=O)=O)sc12,IC50,[2],32 nM
CC(=O)Nc1nnc(S(N)(=O)=O)s1 [ACETAZOLAMIDE],Reaction,[10],3%
COC(C)(C)C(=O)Oc1ccc2nc(S(N)(=O)=O)sc2c1,K,[1],0.0222 h⁻¹
same,IC50,[2],1.2 nM
same,half-life,[3],36 min
same,K,[4],0.019 h⁻¹
CCOCCOCCOC(C)(C)C(=O)Oc1ccc2nc(S(N)(=O)=O)sc2c1,Change,[11],-21%
same,IC50,[2],3.2 nM
same,Pressure,[12],-9 mmHg
same,Change,[7],-22%
CC(=O)Oc1ccc2nc(S(N)(=O)=O)sc2c1,Change,[14],-10%
same,Change,[11],-35%
same,K,[1],0.0165 h⁻¹
same,IC50,[2],2 nM
same,Change,[9],-42%
same,half-life,[3],22 min
same,K,[4],0.0217 h⁻¹
same,Pressure,[12],-8.8 mmHg
same,Change,[7],-47%
CN(C)Cc1ccc(C(=O)Oc2ccc3nc(S(N)(=O)=O)sc3c2)cc1,IC50,[8],4 nM
CC(C)(C)OC(=O)Oc1ccc2nc(S(N)(=O)=O)sc2c1,IC50,[2],10 nM
NS(=O)(=O)c1nc2ccc(OC(=O)CC3CCCC3)cc2s1,IC50,[8],6 nM
CC(=O)/N=c1/sc(S(N)(=O)=O)nn1C [METHAZOLAMIDE],K,[1],0.0041 h⁻¹
same,Reaction,[10],27%
CCCCCC(=O)Oc1ccc2nc(S(N)(=O)=O)sc2c1,K,[1],0.0152 h⁻¹
same,IC50,[2],4 nM
same,half-life,[3],2 min
same,K,[4],0.0182 h⁻¹
COCCOC(C)(C)C(=O)Oc1ccc2nc(S(N)(=O)=O)sc2c1,K,[1],0.0097 h⁻¹
same,IC50,[2],1.4 nM
same,half-life,[3],72 min
same,K,[4],0.015 h⁻¹
CN(C)c1ccc(C(=O)Oc2ccc3nc(S(N)(=O)=O)sc3c2)cc1,IC50,[8],60 nM
same,Change,[7],7%
CCOc1ccc2nc(S(N)(=O)=O)sc2c1 [ETHOXZOLAMIDE],Reaction,[10],36%
CCCCCCCC(=O)Oc1ccc2nc(S(N)(=O)=O)sc2c1,Change,[11],-16%
same,IC50,[8],1.6 nM
same,Change,[9],-29%
same,Pressure,[12],-5 mmHg
same,Change,[7],-33%
CCOP(=O)(OCC)Oc1ccc2nc(S(N)(=O)=O)sc2c1,IC50,[2],1.8 nM
same,Change,[7],-22%
NS(=O)(=O)c1nc2ccc(OC(=O)Cc3ccc(Cl)cc3)cc2s1,IC50,[8],10 nM
NS(=O)(=O)c1nc2cc(O)ccc2s1,IC50,[2],5 nM
